Measured values as given in ChEMBL document CHEMBL1201862, “PubChem BioAssay data set” (2004).
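48-hour exposure; five concentrations; linearly interpolated endpoints. GI50 marks 50% less growth.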 Calls of active or inactive are those of the source. Cut-off read from the data, not from the text of the source: active = GI50 up to about 1.1 µM and inactive = higher.

Key:
Assay in all cases: NCI tumour cell line growth inhibition, 48 h
UO-31 = system: UO-31
OVCAR-4 = system: OVCAR-4
MCF7 = system: MCF7
IGROV-1 = system: IGROV-1
ACHN = system: ACHN
HCT-116 = system: HCT-116
HOP-62 = system: HOP-62
HOP-92 = system: HOP-92
MDA-MB-231 = system: MDA-MB-231
SF-539 = system: SF-539
OVCAR-8 = system: OVCAR-8
NCI-H23 = system: NCI-H23
HCT-15 = system: HCT-15
A549 = system: A549
CAKI-1 = system: CAKI-1
MDA-MB-435 = system: MDA-MB-435
CCRF-CEM = system: CCRF-CEM
NCI-H460 = system: NCI-H460
BT-549 = system: BT-549
SW-620 = system: SW-620

| Compound | GI50 (UO-31) | GI50 (OVCAR-4) | GI50 (MCF7) | GI50 (IGROV-1) | GI50 (ACHN) | GI50 (HCT-116) | GI50 (HOP-62) | GI50 (HOP-92) | GI50 (MDA-MB-231) | GI50 (SF-539) | GI50 (OVCAR-8) | GI50 (NCI-H23) | GI50 (HCT-15) | GI50 (A549) | GI50 (CAKI-1) | GI50 (MDA-MB-435) | GI50 (CCRF-CEM) | GI50 (NCI-H460) | GI50 (BT-549) | GI50 (SW-620) |
| --- | --- | --- | --- | --- | --- | --- | --- | --- | --- | --- | --- | --- | --- | --- | --- | --- | --- | --- | --- | --- |
| CC(=O)O[C@@H]1C(=O)N(c2ccccc2)[C@@H]1c1cc2ccccc2c2ccccc12 | 22.2 µM (inactive) | 20.5 µM (inactive) | 34.2 µM (inactive) | 21.6 µM (inactive) | 29.6 µM (inactive) | 27.5 µM (inactive) | 29.6 µM (inactive) | 20.8 µM (inactive) | 20.3 µM (inactive) | 25.4 µM (inactive) | 24.5 µM (inactive) | 20.2 µM (inactive) | 33.1 µM | 21.5 µM (inactive) | 5.25 µM (inactive) | 16.8 µM (inactive) | 25.6 µM (inactive) | 31.4 µM (inactive) | – | – |
| O=[N+]([O-])C(/C=C(\Cl)n1nnc2ccccc21)=C(/Cl)n1nnc2ccccc21 | > 100 µM (inactive) | > 100 µM (inactive) | – | > 100 µM (inactive) | > 100 µM (inactive) | > 100 µM (inactive) | > 100 µM (inactive) | > 100 µM (inactive) | > 100 µM (inactive) | > 100 µM (inactive) | – | > 100 µM (inactive) | > 100 µM | > 100 µM (inactive) | > 100 µM (inactive) | > 100 µM (inactive) | 76.4 µM (inactive) | > 100 µM (inactive) | – | – |
| O=c1[nH]nc(Cc2ccccc2)n1/N=C/c1ccc(/C=N/n2c(Cc3ccccc3)n[nH]c2=O)cc1 | > 100 µM (inactive) | > 100 µM (inactive) | > 100 µM (inactive) | > 100 µM (inactive) | > 100 µM (inactive) | > 100 µM (inactive) | 57.5 µM (inactive) | – | 38.8 µM (inactive) | – | > 100 µM (inactive) | > 100 µM (inactive) | > 100 µM | > 100 µM (inactive) | > 100 µM (inactive) | > 100 µM (inactive) | 23.8 µM (inactive) | > 100 µM (inactive) | > 100 µM (inactive) | > 100 µM (inactive) |
| CC(=O)Nc1ccc2c(C)c3c4ccccc4n(C)c3nc2n1 | 11.4 µM (inactive) | – | 20.8 µM (inactive) | 28.1 µM (inactive) | 8.55 µM (inactive) | 7.1 µM (inactive) | 14.3 µM (inactive) | – | 18.7 µM (inactive) | 29.3 µM (inactive) | 17.9 µM (inactive) | 19.3 µM (inactive) | 11.4 µM | 16 µM (inactive) | 12.2 µM (inactive) | 18.7 µM (inactive) | 18.7 µM (inactive) | 2.92 µM (inactive) | 31.3 µM (inactive) | 13.2 µM (inactive) |
| CCOC(=O)C(O)(NC(=O)Nc1ccc(F)cc1)C(F)(F)F (configuration not stated) | > 100 µM (inactive) | – | – | > 100 µM (inactive) | > 100 µM (inactive) | > 100 µM (inactive) | – | – | – | > 100 µM (inactive) | > 100 µM (inactive) | > 100 µM (inactive) | > 100 µM | > 100 µM (inactive) | 38.8 µM (inactive) | > 100 µM (inactive) | > 100 µM (inactive) | – | > 100 µM (inactive) | > 100 µM (inactive) |
| CCCCCCCCCCCC(=O)c1c(O)cccc1O | 16.5 µM (inactive) | 20.4 µM (inactive) | – | 18.1 µM (inactive) | 19.5 µM (inactive) | 18 µM (inactive) | 17.6 µM (inactive) | 18.1 µM (inactive) | – | 18 µM (inactive) | 17.9 µM (inactive) | 17.6 µM (inactive) | 18.6 µM | 18 µM (inactive) | 23.4 µM (inactive) | – | 24.5 µM (inactive) | 21.7 µM (inactive) | – | 19.1 µM (inactive) |
| O=C(c1ccccc1)N1N=C(C(F)(F)F)CC1(O)C(F)(F)F (configuration not stated) | > 100 µM (inactive) | > 100 µM (inactive) | > 100 µM (inactive) | – | > 100 µM (inactive) | > 100 µM (inactive) | > 100 µM (inactive) | – | > 100 µM (inactive) | > 100 µM (inactive) | > 100 µM (inactive) | > 100 µM (inactive) | > 100 µM | > 100 µM (inactive) | – | > 100 µM (inactive) | > 100 µM (inactive) | > 100 µM (inactive) | > 100 µM (inactive) | > 100 µM (inactive) |
| CCOC(=O)/C(=C\c1ccccc1)C(=O)O | > 100 µM (inactive) | > 100 µM (inactive) | – | > 100 µM (inactive) | > 100 µM (inactive) | > 100 µM (inactive) | > 100 µM (inactive) | > 100 µM (inactive) | – | > 100 µM (inactive) | > 100 µM (inactive) | > 100 µM (inactive) | > 100 µM | > 100 µM (inactive) | > 100 µM (inactive) | – | > 100 µM (inactive) | > 100 µM (inactive) | – | > 100 µM (inactive) |
| O=C1CC(c2ccco2)C2(C(=O)NC(=O)NC2=O)C(c2ccco2)C1 (configuration not stated) | > 75 µM (inactive) | > 75 µM (inactive) | > 75 µM (inactive) | > 75 µM (inactive) | > 75 µM (inactive) | > 75 µM (inactive) | > 75 µM (inactive) | – | > 75 µM (inactive) | > 75 µM (inactive) | > 75 µM (inactive) | > 75 µM (inactive) | > 75 µM | > 75 µM (inactive) | > 75 µM (inactive) | > 75 µM (inactive) | > 75 µM (inactive) | > 75 µM (inactive) | > 75 µM (inactive) | > 75 µM (inactive) |
| COC(=O)c1c(O)ccc2c1c1cc3ccccc3cc1n2Cc1cc(OC)cc(OC)c1 | 3.17 µM (inactive) | 9.84 µM (inactive) | 1.73 µM (inactive) | 0.678 µM (active) | 1.74 µM (inactive) | 1.13 µM (inactive) | 3.23 µM (inactive) | 11.7 µM (inactive) | 6.55 µM (inactive) | 1.86 µM (inactive) | 6.38 µM (inactive) | 4.53 µM (inactive) | 1.46 µM | 3.37 µM (inactive) | 2.18 µM (inactive) | 0.321 µM (active) | 1.66 µM (inactive) | 2.57 µM (inactive) | – | 3.61 µM (inactive) |
| O=C(O)/C=C\C(=O)Nc1ccccn1 | > 100 µM (inactive) | > 100 µM (inactive) | – | > 100 µM (inactive) | > 100 µM (inactive) | > 100 µM (inactive) | > 100 µM (inactive) | > 100 µM (inactive) | > 100 µM (inactive) | > 100 µM (inactive) | > 100 µM (inactive) | > 100 µM (inactive) | > 100 µM | > 100 µM (inactive) | > 100 µM (inactive) | > 100 µM (inactive) | > 100 µM (inactive) | > 100 µM (inactive) | > 100 µM (inactive) | > 100 µM (inactive) |
| Cc1ccccc1NC(=O)/C(C#N)=N\Nc1[nH]cnc1C(N)=O | 1.62 µM (inactive) | 34.1 µM (inactive) | 21.6 µM (inactive) | 4.88 µM (inactive) | 5.28 µM (inactive) | 4.37 µM (inactive) | 6.12 µM (inactive) | – | 7.46 µM (inactive) | – | 1.51 µM (inactive) | 32.6 µM (inactive) | 19.3 µM | > 100 µM (inactive) | 2.59 µM (inactive) | 4.68 µM (inactive) | 2.96 µM (inactive) | 9.33 µM (inactive) | > 100 µM (inactive) | 2.89 µM (inactive) |
| COc1cc(Cn2c3c(c4cc(O)ccc42)Cc2ccccc2C3=O)cc(OC)c1 | > 100 µM (inactive) | 19.9 µM (inactive) | 20.7 µM (inactive) | 44.8 µM (inactive) | – | 34.4 µM (inactive) | 60.7 µM (inactive) | – | 31 µM (inactive) | 37.3 µM (inactive) | 59.6 µM (inactive) | > 100 µM (inactive) | 33.9 µM | 74 µM (inactive) | 32.7 µM (inactive) | 11.9 µM (inactive) | 22.6 µM (inactive) | 62.1 µM (inactive) | > 100 µM (inactive) | 54.5 µM (inactive) |
| Cn1c(CO)ccc1-c1ccc(-c2ccc[se]2)[se]1 | > 87.1 µM (inactive) | 0.043 µM (active) | 0.119 µM (active) | 0.0384 µM (active) | 72.1 µM (inactive) | – | 20.7 µM (inactive) | – | 23.6 µM (inactive) | 17.3 µM (inactive) | 23 µM (inactive) | 20.5 µM (inactive) | 35.9 µM | 17.1 µM (inactive) | < 0.01 µM (active) | 12.6 µM (inactive) | 23.1 µM (inactive) | 14.2 µM (inactive) | 21.8 µM (inactive) | 0.0959 µM (active) |
| O=c1cn[nH]c(=S)n1/N=C/c1c[nH]c2ccccc12 | > 100 µM (inactive) | 88.1 µM (inactive) | 45.7 µM (inactive) | 0.564 µM (active) | > 100 µM (inactive) | > 100 µM (inactive) | 49.3 µM (inactive) | – | – | > 100 µM (inactive) | 32.8 µM (inactive) | – | 31.4 µM | > 100 µM (inactive) | > 100 µM (inactive) | 58.5 µM (inactive) | 11.3 µM (inactive) | > 100 µM (inactive) | 72.6 µM (inactive) | 45.3 µM (inactive) |
| Brc1cccc(C2SCc3nc4ccccc4n32)c1 (configuration not stated) | 9.46 µM (inactive) | 19 µM (inactive) | – | 21.7 µM (inactive) | 16.3 µM (inactive) | 14.5 µM (inactive) | 15.3 µM (inactive) | 11.1 µM (inactive) | – | 20.8 µM (inactive) | 22.5 µM (inactive) | 13.9 µM (inactive) | 15.2 µM | 32.7 µM (inactive) | 30.2 µM (inactive) | – | 26.2 µM (inactive) | 23.6 µM (inactive) | – | 31.8 µM (inactive) |
